Laboratory results reported in article PMC8911579, “(−)-Naringenin 4′,7-dimethyl Ether Isolated from Nardostachys jatamansi Relieves Pain through Inhibition of Multiple Channels” (Molecules, 2022).

Tests used:
[1] = target: Nav1.8 channel (Homo sapiens, UniProt Q9Y5Y9); assay: whole-cell patch-clamp, Nav1.8 stably expressed in HEK293 cells
[2] = target: T1, TRPA1 channels (Homo sapiens, UniProt O75762); assay: whole-cell patch-clamp, TRPA1 stably expressed in HEK293 cells; format: cell-based; settings: 30 µM
T1 construct: expressed in transfected cells

[3] = test system: mustard oil-induced colorectal pain; assay: mustard oil-induced mouse colorectal pain model; format: in vivo, C57BL/6 mice; settings: 30 min observation
Experimental: The dose-dependent relief of somatic pain in the formalin model prompted us to ask whether it could attenuate the visceral pain. Thereby, we constructed the mustard oil-induced mouse colorectal pain model as previously described. […] As those observed in intraplantar formalin-induced pain, (−)-NRG-DM dose dependently relieved intracolonic mustard oil-caused writhing (Figure 3A). After intraperitoneal application of 30 mg/kg and 50 mg/kg (−)-NRG-DM, the writhing number reduced by approximately 60% and 80%, respectively (Figure 3B).
Male C57BL/6 mice, weighing 23~25 g, were randomly assigned into 3 groups (n = 10 for each group) and placed in a transparent observation chamber for at least 20 min prior to the experiment. Mice were intraperitoneally administrated with vehicle or (−)-NRG-DM (30 or 50 mg/kg) 30 min before the injection of diluted mustard. Subsequently, 50 µL of diluted mustard oil solution (0.75% in 70% ethanol) was intracolonically administrated and the number of pain responses was counted for 30 min. In the present study, postures defined as pain-related behaviors were in agreement with previous descriptions: (1) licking of the abdomen, (2) stretching the abdomen, (3) squashing of lower abdomen against the floor, (4) abdominal wall retractions.

[4] = test system: delayed rectifier potassium currents (IK) in DRG neurons; assay: whole-cell patch-clamp, delayed rectifier potassium currents in DRG neurons; format: cell-based, mouse
Text: The currents in mouse DRG neurons can be separated into IA and IK. They could be distinguished by applying voltage steps from a holding potential of −50 mV, at which IA was almost completely inactivated, while IK remained unchanged. Thereby, IA could be separated by subtracting IK from the total potassium currents. According to these electrophysiological characteristics, the effects of (−)-NRG-DM on potassium currents were examined (Figure 5A). […] Additionally, the effects of (−)-NRG-DM on the kinetics of the Kv channels were further characterized. The Kv currents were elicited by multiple 1500 ms depolarization pulses ranging from −80 mV to +90 mV in 10 mV increments from a holding potential of −80 mV. […] The values of V1/2 in the absence and presence of 10 µM (−)-NRG-DM were −6.43 ± 1.21 mV and −8.08 ± 2.02 mV, respectively (Figure 5D).
Dorsal root ganglia (DRG) were dissected from male C57BL/6 mice aged 4~6 weeks. The ganglia were first cut into small pieces and then digested at 37 °C for 20 min in DMEM containing 1 mg/mL collagenase type I and 0.25 mg/mL trypsin (Sigma-Aldrich). Subsequently, the digested small fragments were terminated and resuspended with DMEM/F12 growth medium (Gibco) supplemented with 10% fetal bovine serum (FBS) (Gibco). […]

[5] = test system: TTX-resistant (TTX-R) currents in small-diameter DRG neurons; format: cell-based, mouse; settings: 300 nM TTX
[6] = test system: acutely isolated mouse small-diameter DRG neurons; assay: whole-cell current-clamp, action potential firing in DRG neurons; format: cell-based; settings: for action potential amplitude: 200 pA current injection, 500 ms, control 98.00 ± 6.19 mV
Text: To investigate the underlying mechanism of (−)-NRG-DM-mediated analgesic activity, whole-cell current-clamp technology was applied to examine the effects of (−)-NRG-DM on the action potential firing in acutely isolated mouse small-diameter DRG neurons. The action potentials were evoked by a current injection of 200 pA for a 500 ms period. The threshold was defined by the first amplitude at which an action potential with a membrane potential larger than 0 mV was produced, and the amplitude was defined as the peak relative to the resting membrane potential. […] The amplitudes were reduced from 98.00 ± 6.19 mV to 95.00 ± 5.65 mV, 93.40 ± 8.27 mV, 86.80 ± 9.75 mV, and 74.40 ± 7.08 mV after perfusion of 1 μM, 3 μM, 10 μM, and 30 μM (−)-NRG-DM, respectively (Figure 4C, n = 5). Current threshold, the injection current required to elicit a single all-or-none action potential, was determined by applying 500 ms depolarizing currents of increasing magnitude. […] The inhibitory effects of (−)-NRG-DM on the firing frequency and the amplitudes of action potentials were partially reversible after washout.
Dorsal root ganglia (DRG) were dissected from male C57BL/6 mice aged 4~6 weeks. The ganglia were first cut into small pieces and then digested at 37 °C for 20 min in DMEM containing 1 mg/mL collagenase type I and 0.25 mg/mL trypsin (Sigma-Aldrich). Subsequently, the digested small fragments were terminated and resuspended with DMEM/F12 growth medium (Gibco) supplemented with 10% fetal bovine serum (FBS) (Gibco). Finally, the dissociated DRG neurons were seeded onto 24-well plates with poly-L-lysine-coated coverslips and placed in a 37 °C, 5% CO2 incubator for at least 1 h before electrophysiological experiments.

[7] = test system: formalin-induced inflammatory pain; assay: formalin-induced mouse inflammatory pain model; format: in vivo, ICR mice; settings: phase I and phase II
Experimental: The formalin test is a classical inflammatory pain model which represents somatic pain. Intraplantar injection of formalin results in a typical two-stage nociceptive behavior, which is characterized by licking and biting of the injected paw. The first phase (0~10 min) mainly reflects nociceptive pain, while the second phase (11~60 min) represents the inflammatory responses. In our study, we tested the effects of (−)-NRG-DM on formalin-induced inflammatory pain in mice. (−)-NRG-DM at 30 mg/kg and 50 mg/kg body weight were individually intraperitoneally administrated 30 min before injection of 1% formalin solution.
Adult male ICR mice weighing 20 ± 2 g were randomly divided into 3 groups (n = 10 for each group) and acclimatized in a transparent observation chamber for at least 30 min before the experiment. Mice were intraperitoneally administrated with vehicle or (−)-NRG-DM (30 or 50 mg/kg) 30 min prior to formalin injection. Then, 1% formalin solution (20 μL per site) was subcutaneously injected into the plantar of the left hind paw to induce acute inflammatory pain. Immediately, mice were put back into the observation chambers. Nociception caused by formalin was assessed by scoring painful behaviors and licking time over a period of 60 min. […]

Sequence of Nav1.8 channel (Q9Y5Y9 whole entry): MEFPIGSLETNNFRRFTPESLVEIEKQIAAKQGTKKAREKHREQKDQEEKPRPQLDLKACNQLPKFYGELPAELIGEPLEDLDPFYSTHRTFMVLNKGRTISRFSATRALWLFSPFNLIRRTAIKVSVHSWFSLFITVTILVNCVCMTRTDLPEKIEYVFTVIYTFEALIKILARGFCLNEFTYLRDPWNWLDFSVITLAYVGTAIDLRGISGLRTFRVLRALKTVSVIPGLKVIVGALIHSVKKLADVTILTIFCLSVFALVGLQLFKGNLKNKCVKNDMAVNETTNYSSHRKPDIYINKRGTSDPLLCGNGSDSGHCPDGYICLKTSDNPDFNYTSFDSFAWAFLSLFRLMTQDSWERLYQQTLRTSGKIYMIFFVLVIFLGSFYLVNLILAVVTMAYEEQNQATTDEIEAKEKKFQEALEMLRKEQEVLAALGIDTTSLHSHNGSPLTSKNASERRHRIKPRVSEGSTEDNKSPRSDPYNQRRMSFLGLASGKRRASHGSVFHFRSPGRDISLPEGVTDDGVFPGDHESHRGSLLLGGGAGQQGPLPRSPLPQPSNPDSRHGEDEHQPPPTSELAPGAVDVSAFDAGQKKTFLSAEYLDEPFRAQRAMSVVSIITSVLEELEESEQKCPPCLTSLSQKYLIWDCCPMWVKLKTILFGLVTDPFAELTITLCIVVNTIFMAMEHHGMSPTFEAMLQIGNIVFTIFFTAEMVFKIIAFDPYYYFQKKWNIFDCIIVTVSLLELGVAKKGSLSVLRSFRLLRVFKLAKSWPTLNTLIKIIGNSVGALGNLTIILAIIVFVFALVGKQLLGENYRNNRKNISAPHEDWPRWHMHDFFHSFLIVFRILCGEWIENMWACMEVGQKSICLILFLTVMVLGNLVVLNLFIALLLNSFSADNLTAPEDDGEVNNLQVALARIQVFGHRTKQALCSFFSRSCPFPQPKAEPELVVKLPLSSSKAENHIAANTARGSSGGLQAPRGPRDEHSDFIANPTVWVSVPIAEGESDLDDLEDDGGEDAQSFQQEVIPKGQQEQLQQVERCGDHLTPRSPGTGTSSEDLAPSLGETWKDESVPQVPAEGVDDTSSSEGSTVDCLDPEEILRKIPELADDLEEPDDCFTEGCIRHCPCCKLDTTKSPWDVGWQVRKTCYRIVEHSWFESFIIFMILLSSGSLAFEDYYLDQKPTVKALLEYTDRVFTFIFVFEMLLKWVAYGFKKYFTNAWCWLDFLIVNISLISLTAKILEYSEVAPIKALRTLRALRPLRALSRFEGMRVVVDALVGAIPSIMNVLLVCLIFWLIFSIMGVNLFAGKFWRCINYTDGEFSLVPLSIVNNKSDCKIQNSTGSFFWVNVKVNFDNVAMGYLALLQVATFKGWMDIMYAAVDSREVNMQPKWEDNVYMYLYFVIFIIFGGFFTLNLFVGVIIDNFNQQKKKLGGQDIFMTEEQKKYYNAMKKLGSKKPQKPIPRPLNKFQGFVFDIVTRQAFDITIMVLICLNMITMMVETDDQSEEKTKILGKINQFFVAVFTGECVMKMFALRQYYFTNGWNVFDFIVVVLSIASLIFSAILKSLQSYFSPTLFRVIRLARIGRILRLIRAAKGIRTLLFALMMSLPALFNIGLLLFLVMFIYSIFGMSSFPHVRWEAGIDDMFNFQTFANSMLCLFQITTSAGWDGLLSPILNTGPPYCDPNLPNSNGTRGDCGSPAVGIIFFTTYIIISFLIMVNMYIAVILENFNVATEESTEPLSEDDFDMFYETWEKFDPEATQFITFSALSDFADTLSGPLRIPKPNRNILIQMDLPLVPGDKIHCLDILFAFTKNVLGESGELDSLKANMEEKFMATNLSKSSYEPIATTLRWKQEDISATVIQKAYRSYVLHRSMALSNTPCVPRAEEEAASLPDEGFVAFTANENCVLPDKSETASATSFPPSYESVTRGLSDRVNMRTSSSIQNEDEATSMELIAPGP
T1 sequence (O75762 whole entry): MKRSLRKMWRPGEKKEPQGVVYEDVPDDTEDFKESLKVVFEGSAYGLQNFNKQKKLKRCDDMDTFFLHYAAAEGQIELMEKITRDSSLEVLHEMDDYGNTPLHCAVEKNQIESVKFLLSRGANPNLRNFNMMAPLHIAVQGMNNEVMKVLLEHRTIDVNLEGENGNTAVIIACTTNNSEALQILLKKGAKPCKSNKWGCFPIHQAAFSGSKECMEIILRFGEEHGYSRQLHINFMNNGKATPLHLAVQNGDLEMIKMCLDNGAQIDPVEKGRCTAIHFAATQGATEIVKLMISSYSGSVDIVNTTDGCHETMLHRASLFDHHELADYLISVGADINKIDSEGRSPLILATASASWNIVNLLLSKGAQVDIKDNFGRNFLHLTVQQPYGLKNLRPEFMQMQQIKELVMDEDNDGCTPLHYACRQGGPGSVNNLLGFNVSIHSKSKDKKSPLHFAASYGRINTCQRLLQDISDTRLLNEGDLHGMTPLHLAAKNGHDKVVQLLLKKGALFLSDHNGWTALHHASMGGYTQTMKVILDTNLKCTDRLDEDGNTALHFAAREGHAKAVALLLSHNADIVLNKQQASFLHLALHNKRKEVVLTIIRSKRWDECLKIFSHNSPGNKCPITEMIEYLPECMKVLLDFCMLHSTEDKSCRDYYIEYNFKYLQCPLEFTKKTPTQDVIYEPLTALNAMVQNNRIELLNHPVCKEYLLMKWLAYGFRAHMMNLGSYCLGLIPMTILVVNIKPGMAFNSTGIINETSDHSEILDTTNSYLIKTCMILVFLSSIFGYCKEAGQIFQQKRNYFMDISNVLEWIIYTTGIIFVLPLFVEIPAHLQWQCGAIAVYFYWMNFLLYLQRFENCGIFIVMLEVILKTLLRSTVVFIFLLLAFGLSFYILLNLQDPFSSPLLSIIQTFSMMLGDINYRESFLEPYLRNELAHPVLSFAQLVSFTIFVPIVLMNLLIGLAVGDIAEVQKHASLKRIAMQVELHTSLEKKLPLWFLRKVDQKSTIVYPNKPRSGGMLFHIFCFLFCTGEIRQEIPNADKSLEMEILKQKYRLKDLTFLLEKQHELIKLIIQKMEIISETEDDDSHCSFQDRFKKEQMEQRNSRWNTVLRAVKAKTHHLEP

Question: With `COc1ccc([C@H]2CC(=O)c3c(O)cc(OC)cc3O2)cc1` [(−)-NRG-DM, (−)-naringenin 4′,7-dimethyl ether] as the compound, how does the inhibitory ratio ([1]; 30 µM) read?
Answer: The inhibitory ratio was 44 ± 3%.

Question: And the IDrug/IControl ([1]; 30 μM, HEK293)?
Answer: Its IDrug/IControl is 0.56 ± 0.03.

Question: And the “V1/2 of steady-state inactivation of Nav1.8” value ([1]; 30 µM, control −48.58 ± 0.67 mV)?
Answer: Its value is −53.37 ± 0.70 mV.

Question: What about the “effect on TRPA1 currents and AITC-induced TRPA1 currents” value [2] of the same compound?
Answer: Its value is “did not enhance any TRPA1 currents or inhibit AITC-induced TRPA1 currents either”.

Question: And the “reduction of writhing number” value ([3]; 30 mg/kg i.p.)?
Answer: The value was “approximately 60%”.

Question: And the “reduction of writhing number” value ([3]; 50 mg/kg i.p.)?
Answer: The value was ~80%.

Question: And the IC50 ([4]; Mus musculus, DRG neuron, n = 5)?
Answer: The IC50 was 5.1 ± 0.04 µM.

Question: And the “reduction in IK currents” value ([4]; at plasma concentration (around 7 µM))?
Answer: Its value is “around 58%”.

Question: What about the “V1/2 of activation, TTX-R currents” value ([5]; 30 μM, control −16.82 ± 0.72 mV) of the same compound?
Answer: The value was −20.14 ± 0.87 mV.

Question: And the “V1/2 of steady-state inactivation, TTX-R currents” value ([5]; 30 µM, control −39.43 ± 0.66 mV)?
Answer: Its value is −49.99 ± 0.67 mV.

Question: And the “concentration at which significant reduction in number of action potentials started” value [6]?
Answer: The value was 10 µM.

Question: What about the action potential amplitude ([6]; 1 μM) of the same compound?
Answer: Its action potential amplitude is 95.00 ± 5.65 mV.

Question: What about the action potential amplitude ([6]; 3 μM) of the same compound?
Answer: Its action potential amplitude is 93.40 ± 8.27 mV.

Question: What about the action potential amplitude ([6]; 10 μM) of the same compound?
Answer: Its action potential amplitude is 86.80 ± 9.75 mV.

Question: What about the action potential amplitude ([6]; 30 μM) of the same compound?
Answer: The action potential amplitude was 74.40 ± 7.08 mV.

Question: And the “firing frequency of DRG neurons” value ([6]; 1~30 μM)?
Answer: Its value is “dose-dependently inhibited the firing frequency”.

Question: And the “painful behaviors (licking time and pain score)” value ([7]; 30 mg/kg i.p. 30 min before 1% formalin)?
Answer: The value was “only had a significant influence in phase I”.

Question: And the “painful behaviors (licking time and overall pain score)” value ([7]; 50 mg/kg i.p. 30 min before 1% formalin)?
Answer: The value was “significantly attenuated painful behaviors”.
